Key:
serum glucose [1] = assay: Serum glucose in ob/ob mice; assay type: in vivo; settings: 2 weeks treatment, n=3
Procedure: (§1) In addition to obesity, ob/ob mice also develop overt diabetes with significant elevation of blood glucose. C-75 corrected the hyperglycemia observed in vehicle treated mice with a nearly 3-fold reduction in mean serum glucose (FIG. 4A). Male ob/ob mice (n=3) were treated with C-75 or vehicle for 2 weeks (FIGS. 3B and C) and compared with age matched, untreated c57BL/6j mice (+/+). […] The normalization of blood glucose occurred from the profound weight loss in the ob/ob mice as acute treatment of normal mice with C-75 had no effect on serum other than that resulting from inhibition of feeding (FIG. 4B). Male BALB/c mice (n=7) were fasted for 24 hours or injected IP with 30 mg/kg C-75 or RPMI vehicle and allowed free access to food for 24 hours. In both cases, serum was collected at death and assayed for glucose: RefLab™ GLU (Medical Analysis Systems, Inc., Camarillo, Calif.). […] Both panels are representative of 2 experiments.

leptin = assay: Serum leptin ELISA; assay type: in vivo, BALB/c mice; settings: 30 mg/kg IP, 24 hours
From the text: One of the primary signals modulating NPY function in feeding control is leptin. This hormone is elevated in the fed state and inhibits NPY production and feeding (Schwartz, et al., 1996, Diabetes, 45:531) in a manner similar to that observed with C-75 treatment. Leptin was an attractive candidate as its primary site of production, white adipose tissue (Zhang, et al., 1994, Nature, 372:425), is a site of fatty acid synthesis and expresses high levels of FAS. To test for increased leptin release as the signal mediating C-75 regulation of NPY, serum leptin levels were assessed in fed (end of light cycle) fasted and C-75-treated mice. BALB/c mice treated with RPMI vehicle (o) or 30 mg/kg C-75 (▪) I.P. and free fed, or fasted ([…]) for 24 hours were weighed, decapitated and exsanguinated. Serum leptin levels were determined using a QUANTIKINE™ murine leptin ELISA (R&D Systems) and plotted against total body weight (FIG. 3A). […] This reduction correlates with the reduction in body weight, presumably body fat, resulting from C-75 treatment FIG. 3A). […] Northern blot analysis of leptin message levels in white adipose tissue from the same animals (performed as described above) supports this observation (data not shown).

feeding behavior [2] = assay: Food intake after a single IP injection (metabolic cages); assay type: in vivo, BALB/c mice; settings: 15 mg/kg, first 24 hours
Procedure: Male BALB/c mice 19-22 g were weighed, treated by a single intra peritoneal (I.P.) injection and housed in metabolic cages. Body weight (FIG. 1.2A) and food intake (FIG. 1.2B) were monitored at 24 hour intervals.
Inhibitors of fatty acid synthesis would be expected to prevent triglyceride accumulation due to inhibition of de novo fatty acid synthesis and impact body weight in this manner. […] However, the dramatic C-75-induced weight loss cannot be accounted for by a blockade of fatty acid/triglyceride biosynthesis. Rather, the weight loss observed in response to C-75 treatment results primarily from an inhibition of feeding. The loss of adipose mass was accompanied by a reduction of lean body mass typical of that observed in fasting. Administration of 15 mg/kg body weight led to a greater than 90% reduction in food intake over the first 24 hours (FIG. 1.2B). Feeding behavior then returned to normal progressively over a 48-72 hour period as the drug effect dissipated. The role of feeding inhibition in C-75 induced weight loss was confirmed by studies in which forced feeding of the drug treated animals largely reversed the observed weight loss.

feeding behavior [3] = assay: Food intake after ICV injection of C-75; assay type: in vivo, mice; settings: ICV 2 μl at 2.5 or 5 μg/μl, food intake over 2 and 4 hours
Procedure: This model predicts that feeding inhibition by FAS inhibitors should be attenuated by inhibitors of ACC's. To test this, mice were pretreated with the ACC inhibitor TOFA or vehicle by ICV injection and examined the ability of C-75, administered IP, to inhibit feeding. BALB/c mice were anesthetized with metofane and injected ICV with 2 μg of TOFA or DMSO vehicle. After 2 hours recovery, mice were injected IP with 15 mg C-75/kg or RPMI vehicle and monitored for total food intake over 2 hours. […] In addition, mice were anesthetized and injected ICV with 2 μl of RPMI or C-75 at 2.5 or 5 μg/μl and food intake monitored over 2 (shaded) and 4 (solid) hours. The efficacy of centrally administered TOFA argues for a central (CNS) mechanism of action. ICV administration of C-75 inhibited feeding by 82% (FIG. 5C), supporting the central target action of C-75. FIGS. 5(B) and (C) combine results from 3 experiments with N=3 for each (9 total).

serum glucose [4] = assay: Serum glucose in wild-type mice, acute treatment; assay type: in vivo, BALB/c mice; settings: 30 mg/kg IP, 24 hours, n=7
Procedure: as §1

hepatic malonyl-CoA = assay: Hepatic malonyl-CoA level after dextrose gavage and IP C-75; assay type: in vivo, BALB/c mice; settings: 20 mg/kg IP, one hour post-treatment, after 2 g/kg dextrose
Procedure: (§2) Male BALB/c mice (4 per group) were given 2 g/kg dextrose by oral gavage. After 15 min mice were injected IP with 20 mg/kg C-75 or RPMI vehicle. One hour post-treatment, livers were rapidly removed, frozen and pulverized in liquid nitrogen, HC104 extracted and assayed for malonyl-CoA [J. D. McGarry, M. J. Stark, D. W. Foster., J. Biol. Chem 253, 8291 (1978)]. Intraperitoneal injection of mice with C-75 leads to a 95% reduction in ^14C-acetate incorporation into fatty acids and to a 110% increase in the level of hepatic malonyl-CoA, the principal substrate of FAS. Experiments described in panels B and C were repeated twice.

[5] = system: adipose fatty acid synthesis; assay: [U-14C]-acetate labeling of adipose tissue from C-75-treated mice; assay type: in vivo, BALB/c mice
Procedure: Female BALB/c mice were treated with 0.6 mg of C-75 in 200 μl RPMI, or vehicle control IP (3 per group). After 3 hours, the animals were killed and approximately 5 mg of adipose tissue was labeled with [U-^14C]-acetate, lipids were extracted and counted, [A. Rashid et al., Am. J. Pathol. 150 (1997)]. […] Values represent mean +/−SEM (*P<0.05).
as §2

feeding behavior [6] = assay: Feeding interval in 24 hour fasted mice; assay type: in vivo; settings: 30 mg/kg IP, within 20 minutes of treatment
Procedure: Mice were fasted for 24 hours to induce voracious feeding. Initial feeding interval (time in seconds between food presentation and initiation of feeding) was measured in naive mice (pretreat). Mice were then treated by I.P. injection of 30 mg/kg C-75 or RPMI vehicle and feeding interval determined at 20, 40 and 60 minutes post-injection. Observation was terminated if no feeding was initiated within 1000 see (experimental cut off). Times represent mean +/−SEM, (n=4).
Prior to treatment, all animals fed ravenously within 3 minutes of being offered food.

For C=C1C(=O)OC(CCCCCCCC)C1C(=O)O (stereo not drawn) [C-75], the “reduction in mean serum glucose” value (serum glucose [1]) was about 3 fold, the serum leptin levels (leptin) was “reduction in leptin levels” and the “reduction in food intake” value (feeding behavior [2]) was “greater than 90%”. For the same compound, the “inhibition of feeding by ICV administration” value (feeding behavior [3]) was 82%, the “effect on serum glucose in wild-type mice” value (serum glucose [4]) was “no effect on serum glucose beyond that attributable to fasting” and the “increase in the level of hepatic malonyl-CoA” value (hepatic malonyl-CoA) was 110%. For the same compound, the “adipose fatty acid synthesis compared to vehicle control” value ([5]; 0.6 mg C-75 IP, 3 hours, female BALB/c mice) was “markedly inhibited”, the “reduction in 14C-acetate incorporation into fatty acids” value ([5]; intraperitoneal injection) was 95% and the “feeding initiation in fasted mice” value (feeding behavior [6]) was “lost all interest in feeding”.
